# Read-outs that look alike come from different tables or passages of the source.
# Target: T1, human M5 mAChR (Homo sapiens, UniProt P08912)
# T1 sequence (P08912 1-532): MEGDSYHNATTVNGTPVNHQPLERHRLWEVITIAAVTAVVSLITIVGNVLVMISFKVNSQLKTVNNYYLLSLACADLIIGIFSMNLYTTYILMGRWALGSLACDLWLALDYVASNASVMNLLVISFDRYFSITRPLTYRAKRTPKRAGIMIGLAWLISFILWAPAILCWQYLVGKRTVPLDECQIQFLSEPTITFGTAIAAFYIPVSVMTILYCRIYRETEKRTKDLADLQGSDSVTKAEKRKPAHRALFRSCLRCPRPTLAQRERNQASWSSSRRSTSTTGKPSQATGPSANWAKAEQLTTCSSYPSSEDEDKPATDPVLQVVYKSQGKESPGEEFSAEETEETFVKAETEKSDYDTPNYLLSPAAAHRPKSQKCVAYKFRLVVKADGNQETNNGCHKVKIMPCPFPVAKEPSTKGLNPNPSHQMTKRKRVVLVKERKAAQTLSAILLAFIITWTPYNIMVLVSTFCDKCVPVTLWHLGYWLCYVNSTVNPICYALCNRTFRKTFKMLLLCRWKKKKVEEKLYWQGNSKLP
# Test: hM5 functional inhibition assay
# Format: cell-based
# Details: for hM5 Percent inhibition (Table 3): single point at 10 μM, EC80 of ACh, average of three determinations
inhibition at 10 µM (read-out: hM5 Percent inhibition (Table 2)) [%],inhibition at 10 µM (read-out: hM5 Percent inhibition (Table 3)) [%],"inhibition at 10 µM (read-out: maximum M5 inhibition, single point M5 inhibition assay) [%]","activity in the 10 μM single point assay (resynthesized 4, 10 μM) [%]",hM5 Percent inhibition (Table 3),SMILES
84,88,50,88,,"Cc1nn(C)c(C)c1S(=O)(=O)N1CCC2(CC1)OCCS2 [Compound 4, 8-((1,3,5-trimethyl-1H-pyrazol-4-yl)sulfonyl)-1-oxa-4-thia-8-azaspiro[4,5]decane]"
,,,,Inactive,Cc1nn(C)cc1S(=O)(=O)N1CCC2(CC1)OCCS2 [Compound 9b]
,,,,Inactive,Cn1cnc(S(=O)(=O)N2CCC3(CC2)OCCS3)c1 [Compound 9h]

# Reference: paper PMC4996684 (Bioorganic & medicinal chemistry letters, 2016)
